Consider 29 molecules from patent US12685312B2, “Sulfonamide apyrase inhibitors” (Texas Crop Science, Inc., priority 2022, dated 2026).

SMILES strings stand for the structures.

This test has as its system apyrase. The test can be described thus: Screen for apyrase inhibitors (Method 1, in vitro phosphate-release absorbance assay). It is filed as biochemical. To be noted: inhibitor conc at 1 mM stock, 1 hr room temperature, absorbance 630 nm; rounded average of two assay results. The procedure, abridged:
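Phosphate-release colorimetric assay (Windsor method) in 60 mM Hepes, 3 mM MgCl2, 3 mM CaCl2, 3 mM ATP, pH 6.5, with compound or DMSO control added. Released phosphate developed with ammonium molybdate and ascorbic acid/TCA, then stopped with citrate/acetic acid.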
For `Cc1ccc(S(=O)(=O)Nc2cccc(C(=O)Nc3nc4ccccc4[nH]3)c2)cc1F` [I-649, N-(1H-benzo[d]imidazol-2-yl)-3-((3-fluoro-4-methylphenyl)sulfonamido)benzamide], the “% Inhibition of Apyrase” value stood at 50%. On to `COc1ccccc1NS(=O)(=O)c1ccc(C(=O)Nc2ccc(F)c([N+](=O)[O-])c2)cc1` [I-414, N-(4-fluoro-3-nitrophenyl)-4-(N-(2-methoxyphenyl)sulfamoyl)benzamide], for which the “% Inhibition of Apyrase” value worked out at 15%. The same measure for `Cc1ccc(C)c(S(=O)(=O)Nc2ccc(C(=O)Nc3ccccc3F)cc2)c1` [I-907, 4-((2,5-dimethylphenyl)sulfonamido)-N-(2-fluorophenyl)benzamide]: 61%; for `O=C(c1ccc(NS(=O)(=O)c2ccc3c(c2)OCCCO3)cc1)N1CCc2ccccc21` [I-923, N-(4-(indoline-1-carbonyl)phenyl)-3,4-dihydro-2H-benzo[b][1,4]dioxepine-7-sulfonamide]: 57%; for `CN(c1ccccc1)S(=O)(=O)c1ccccc1C(=O)Nc1ccc(Cl)cc1F` [I-355, N-(4-chloro-2-fluorophenyl)-2-(N-methyl-N-phenylsulfamoyl)benzamide]: 43%. The same measure for `CSc1cccc(NC(=O)c2cccc(S(=O)(=O)Nc3ccc4c(c3)OCO4)c2)c1` [I-248, 3-(N-(benzo[d][1,3]dioxol-5-yl)sulfamoyl)-N-(3-(methylthio)phenyl)benzamide]: 64%.

In the case of `Cc1ccc(NS(=O)(=O)c2ccc(C(=O)Nc3ccc(Cl)cc3C)cc2)cc1` [I-396, N-(4-chloro-2-methylphenyl)-4-(N-(p-tolyl)sulfamoyl)benzamide], the “% Inhibition of Apyrase” value turned out to be 50%.

For `Cc1c(NC(=O)c2ccc(Cl)c(S(=O)(=O)Nc3ccccc3)c2)cccc1[N+](=O)[O-]` [I-39, 4-chloro-N-(2-methyl-3-nitrophenyl)-3-(N-phenylsulfamoyl)benzamide], the “% Inhibition of Apyrase” value is 14%. The same measure for `Cc1ccnc(NC(=O)c2cccc(NS(=O)(=O)c3ccc4c(c3)OCCCO4)c2)c1` [I-663, 3-((3,4-dihydro-2H-benzo[b][1,4]dioxepine)-7-sulfonamido)-N-(4-methylpyridin-2-yl)benzamide]: 25%; for `CCOC(=O)c1c(NC(=O)c2cccc(S(=O)(=O)Nc3cccc(Cl)c3)c2)sc2c1CCCC2` [I-507, ethyl 2-(3-(N-(3-chlorophenyl)sulfamoyl)benzamido)-4,5,6,7-tetrahydrobenzo[b]thiophene-3-carboxylate]: 57%; for `O=C(Nc1cccc(C(F)(F)F)c1)c1ccccc1S(=O)(=O)N1CCCCC1` [I-356, 2-(piperidin-1-ylsulfonyl)-N-(3-(trifluoromethyl)phenyl)benzamide]: 10%. Regarding `CCOc1ccc(NS(=O)(=O)c2ccc(C(=O)Nc3cccc(C#N)c3)cc2)cc1` [I-211, N-(3-cyanophenyl)-4-(N-(4-ethoxyphenyl)sulfamoyl)benzamide], the “% Inhibition of Apyrase” value was 76%. On to `O=C(Nc1ccccc1)c1cccc(S(=O)(=O)Nc2ccc3c(c2)OCO3)c1` [I-264, 3-(N-(benzo[d][1,3]dioxol-5-yl)sulfamoyl)-N-phenylbenzamide], for which the “% Inhibition of Apyrase” value was 59%. The same measure for `COc1ccc(C(=O)Nc2ccc(F)c(F)c2)cc1S(=O)(=O)Nc1ccc(Br)cc1` [I-26, 3-(N-(4-bromophenyl)sulfamoyl)-N-(3,4-difluorophenyl)-4-methoxybenzamide]: 28%. Turning to `CC1Cc2ccccc2N1S(=O)(=O)c1cccc(C(=O)Nc2ccc(F)c([N+](=O)[O-])c2)c1` (centres unmarked) [I-242, N-(4-fluoro-3-nitrophenyl)-3-((2-methylindolin-1-yl)sulfonyl)benzamide], the “% Inhibition of Apyrase” value is 69%.

Consider `Cc1cc(S(=O)(=O)Nc2ccc(C(=O)N3c4ccccc4CC3C)cc2)ccc1F` (centres unmarked) [I-909, 4-fluoro-3-methyl-N-(4-(2-methylindoline-1-carbonyl)phenyl)benzenesulfonamide], for which the “% Inhibition of Apyrase” value was determined as 60%. The same measure for `O=C(c1cccc(S(=O)(=O)Nc2ccc(Br)cc2)c1)N1CCN(c2cccc(Cl)c2)CC1` [I-247, N-(4-bromophenyl)-3-(4-(3-chlorophenyl)piperazine-1-carbonyl)benzenesulfonamide]: 65%; for `Cc1ccnc(NC(=O)c2cccc(NS(=O)(=O)c3ccc(C)c(F)c3)c2)c1` [I-651, 3-((3-fluoro-4-methylphenyl)sulfonamido)-N-(4-methylpyridin-2-yl)benzamide]: 50%. As for `O=C(Nc1ccc2c(c1)OCCCO2)c1ccc(Cl)c(S(=O)(=O)N2CCc3ccccc32)c1` [I-565, 4-chloro-N-(3,4-dihydro-2H-benzo[b][1,4]dioxepin-7-yl)-3-(indolin-1-ylsulfonyl)benzamide], the “% Inhibition of Apyrase” value amounted to 51%. The same measure for `Cc1ccc(C)c(S(=O)(=O)Nc2ccc(C(=O)Nc3cccc(C#N)c3)cc2)c1` [I-954, N-(3-cyanophenyl)-4-((2,5-dimethylphenyl)sulfonamido)benzamide]: 25%. The same measure for `O=C(Nc1cccc(NS(=O)(=O)c2ccc(Cl)cc2)c1)c1ccc(F)cc1F` [I-343, N-(3-((4-chlorophenyl)sulfonamido)phenyl)-2,4-difluorobenzamide]: 59%; for `O=C(Nc1ccc2[nH]nnc2c1)c1ccc(S(=O)(=O)Nc2ccc(Cl)cc2)cc1` [I-389, N-(1H-benzo[d][1,2,3]triazol-5-yl)-4-(N-(4-chlorophenyl)sulfamoyl)benzamide]: 63%.

`Cc1ccc(S(=O)(=O)N(C)c2ccc(C(=O)Nc3cccc(N4CCCC4=O)c3)cc2)cc1` [I-946, 4-((N,4-dimethylphenyl)sulfonamido)-N-(3-(2-oxopyrrolidin-1-yl)phenyl)benzamide]: the “% Inhibition of Apyrase” value was determined as 44%. In the case of `O=C(Nc1ccccc1NS(=O)(=O)c1cccs1)c1ccc(Br)cc1` [I-830, 4-bromo-N-(2-(thiophene-2-sulfonamido)phenyl)benzamide], the “% Inhibition of Apyrase” value was determined as 60%. The same measure for `COc1ccccc1NS(=O)(=O)c1cccc(NC(=O)c2ccc(=O)n(C)n2)c1` [I-774, N-(3-(N-(2-methoxyphenyl)sulfamoyl)phenyl)-1-methyl-6-oxo-1,6-dihydropyridazine-3-carboxamide]: 3%; for `Cc1ccc(S(=O)(=O)Nc2cccc(C(=O)Nc3cccc(C)c3)c2)cc1` [I-14, 3-((4-methylphenyl)sulfonamido)-N-(m-tolyl)benzamide]: 59%; for `CC1Cc2ccccc2N1S(=O)(=O)c1cccc(C(=O)Nc2cc(F)ccc2F)c1` (centres unmarked) [I-469, N-(2,5-difluorophenyl)-3-((2-methylindolin-1-yl)sulfonyl)benzamide]: 59%. The same measure for `COc1ccc(NC(=O)c2cccc(S(=O)(=O)Nc3ccc4c(c3)OCO4)c2)cc1` [I-276, 3-(N-(benzo[d][1,3]dioxol-5-yl)sulfamoyl)-N-(4-methoxyphenyl)benzamide]: 44%; for `CC1Cc2ccccc2N1S(=O)(=O)c1cccc(C(=O)Nc2ccc3c(c2)OCO3)c1` (centres unmarked) [I-522, N-(benzo[d][1,3]dioxol-5-yl)-3-((2-methylindolin-1-yl)sulfonyl)benzamide]: 55%.
